This note sets out measurements from patent US12268227B2, “Production of flavor concentrates by osmosis” (SYMRISE AG, priority 2017, dated 2025).

Data set [1] can be described thus: Odour threshold concentration in water. On the procedure:
The OAV value is defined as a measure of the significance of a specific component in the odour of a sample, for example, a foodstuff. The OAV value is calculated by dividing the concentration of a specific substance in the food (mg/kg) by the concentration threshold value of this substance in the food (mg/kg). If the OAV>1, the concentration of the substance exceeds the odour threshold concentration and the substance then makes a sensorial contribution to the overall profile.
The sensory recovery coefficient (SWF) of an aroma substance is composed of the log P of the aroma substance and the odour threshold concentration of the aroma substance (mg/kg in water) and is defined as follows: […]

Data set [2] in a line: log P (n-octanol/water partition coefficient) of aroma substances. It counts as physicochemical. The source says:
[formula] • wherein: • C (n-octanol) is the concentration of the aroma substance in the n-octanol phase; and • C (water) is the concentration of the aroma substance in the water phase. The log K(n-octanol/water) is a dimensionless partition coefficient which indicates the ratio of the concentration of the aroma substance in a two-phase system of n-octanol and water. It is thus a model measure of the polarity or water/fat solubility of the aroma substance. Log P is a common physical parameter and is positive for lipophilic aroma substances and negative for hydrophilic aroma substances. The W parameter is therefore defined as follows: W=log10(SWF)

Each structure is given as a SMILES string. Like-named read-outs stand apart in the source and are kept apart here.

Consider `CCCC(=O)O` [butyric acid], for which, in data set [1] (odour threshold concentration), the Threshold was 1000 µg/kg in water. Broadly, the logP is the decadic logarithm of the partition coefficient of the neutral form, usually between octanol and water. With `CCC(C)C=O` (stereo not drawn) [2-methylbutyraldehyde], the logP in data set [2] (read-out: logP) was determined as 1.4. Moreover, in data set [1] (odour threshold concentration), the Threshold came to 0.9 µg/kg in water. In data set [1], `CCCO` [propanol] yielded a Threshold of 5700 µg/kg in water. Take `CCCCCC=O` [hexanal]: the logP in data set [2] (read-out: logP) was found to be 1.85. This molecule registered a Threshold in data set [1] (odour threshold concentration) of 16 µg/kg in water. `CCOC(C)=O` [ethyl acetate]: the Threshold in data set [1] (odour threshold concentration) is 3120 µg/kg in water. Turning to `CC=O` [acetaldehyde], the logP in data set [2] (read-out: logP) was -0.182. Moreover, the Threshold in data set [1] was determined as 63 µg/kg in water. With `CCC(=O)C(C)=O` [2,3-pentanedione], in data set [2] (read-out: logP), the logP came out at 0.159. In addition, the Threshold in data set [1] (odour threshold concentration) stood at 5 µg/kg in water. For `CC/C=C\CCO` [cis-3-hexenol], in data set [2] (read-out: logP), the logP is 1.44. As to `CCCC(=O)OCC` [ethyl butanoate], the logP in data set [2] (read-out: logP) came out at 1.49. Further, the Threshold in data set [1] (odour threshold concentration) turned out to be 1 µg/kg in water. With `CCCCCCO` [hexanol], the Threshold in data set [1] (odour threshold concentration) is 50 µg/kg in water. As to `C=CC(C)(O)CCC=C(C)C` (stereo not drawn) [linalool], the logP in data set [2] (read-out: logP) was found to be 2.74. For the same molecule, the Threshold in data set [1] (odour threshold concentration) is 103 µg/kg in water. Consider `CC(=O)C(C)=O` [2,3-butanedione], for which, in data set [2] (read-out: logP), the logP is -0.508. The molecule also gave a Threshold in data set [1] (odour threshold concentration) of 54 µg/kg in water. On to `CCCCCC(=O)OCC` [ethyl hexanoate], for which the logP in data set [2] (read-out: logP) was determined as 2.41. The molecule also showed a Threshold in data set [1] (odour threshold concentration) of 5 µg/kg in water. Taken in the same sequence, the figures for `CC(C)=CCC/C(C)=C/C=O` [geranial] were 3.19 and 320 µg/kg in water. For `CCC=O` [propanal] the same measures were 0.484 and 170 µg/kg in water.

On to `CCCCCC(=O)O` [hexanoic acid], for which the logP in data set [2] (read-out: logP) was 1.81. Further, the Threshold in data set [1] (odour threshold concentration) amounted to 3940 µg/kg in water. For `CCCCC1CCC(=O)O1` (stereo not drawn) [gamma-octalactone], in data set [2], the log partition coefficient (logP) was 2.0901. In data set [1] (odour threshold concentration), this molecule displayed a Threshold of 24 µg/kg in water. In the case of `CO` [methanol], the logP in data set [2] (read-out: logP) was -0.358. This molecule had a Threshold in data set [1] (odour threshold concentration) of 369828 mg/kg in water. In the case of `CCO` [ethanol], in data set [1] (odour threshold concentration), the Threshold is listed as 52000 mg/kg in water. In turn, `CC(=O)O` [acetic acid] showed a Threshold in data set [1] (odour threshold concentration) of 180000 mg/kg in water.
